Source: ChEMBL document CHEMBL1201862, “PubChem BioAssay data set” (2004)
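48-hour exposure; five concentrations; linearly interpolated endpoints. The concentration for 50% growth inhibition is given as GI50.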 Activity calls are given as the source filed them. No stated cut-off is given here; in the data, active = GI50 up to about 1.1 µM and inactive = higher.

Assays:
Assay in all cases: NCI tumour cell line growth inhibition, 48 h
SNB-75 = system: SNB-75
RPMI-8226 = system: RPMI-8226
SNB-19 = system: SNB-19
MCF7 = system: MCF7
OVCAR-5 = system: OVCAR-5
NCI/ADR-RES = system: NCI/ADR-RES
SR = system: SR
HCT-116 = system: HCT-116
OVCAR-8 = system: OVCAR-8
ACHN = system: ACHN
UACC-62 = system: UACC-62
BT-549 = system: BT-549
U-251 = system: U-251
LOX IMVI = system: LOX IMVI
SW-620 = system: SW-620
UO-31 = system: UO-31
A549 = system: A549
Malme-3M = system: Malme-3M
SF-295 = system: SF-295

## O=C(CCl)N1CCCCC1C1(c2cc3ccccc3[nH]2)OCCO1 (stereo unspecified)
SNB-75
  GI50: 2.65 µM (inactive)
RPMI-8226
  GI50: 2.12 µM (inactive)
SNB-19
  GI50: 10.6 µM (inactive)
MCF7
  GI50: 2.56 µM (inactive)
OVCAR-5
  GI50: 4.17 µM (inactive)
NCI/ADR-RES
  GI50: 3.05 µM (inactive)
SR
  GI50: 0.454 µM (active)
HCT-116
  GI50: 2.84 µM (inactive)
OVCAR-8
  GI50: 4.24 µM (inactive)
ACHN
  GI50: 5 µM (inactive)
UACC-62
  GI50: 3.14 µM (inactive)
BT-549
  GI50: 2.05 µM (inactive)
U-251
  GI50: 2.86 µM (inactive)
LOX IMVI
  GI50: 0.0349 µM (active)
SW-620
  GI50: 4.19 µM (inactive)
UO-31
  GI50: 3.73 µM (inactive)
A549
  GI50: 5.61 µM (inactive)
Malme-3M
  GI50: 4.47 µM (inactive)
SF-295
  GI50: 3.77 µM (inactive)

## CCN(CC)CCO/N=C1\CC[C@H]2[C@@H]3CCc4cc(OC)ccc4[C@H]3CC[C@]12C
SNB-75
  GI50: 2.44 µM (inactive)
RPMI-8226
  GI50: 1.67 µM (inactive)
SNB-19
  GI50: 8.38 µM (inactive)
MCF7
  GI50: 3.66 µM (inactive)
OVCAR-5
  GI50: 3.17 µM (inactive)
NCI/ADR-RES
  GI50: 5.41 µM (inactive)
SR
  GI50: 1.49 µM (inactive)
HCT-116
  GI50: 1.44 µM (inactive)
OVCAR-8
  GI50: 2.6 µM (inactive)
ACHN
  GI50: 3.57 µM (inactive)
UACC-62
  GI50: 0.82 µM (active)
BT-549
  GI50: 4.56 µM (inactive)
U-251
  GI50: 2.59 µM (inactive)
LOX IMVI
  GI50: 0.789 µM (active)
SW-620
  GI50: 1.72 µM (inactive)
UO-31
  GI50: 2.94 µM (inactive)
A549
  GI50: 2.84 µM (inactive)
Malme-3M
  GI50: 1.82 µM (inactive)
SF-295
  GI50: 1.83 µM (inactive)

## COC(=O)C1=C(C(=O)OC)SC2(S1)C(C(=O)OC)=C(C(=O)OC)Sc1c2ss/c1=N/C(C)(C)C
SNB-75
  GI50: 1.45 µM (inactive)
SNB-19
  GI50: 2.13 µM (inactive)
MCF7
  GI50: 1.26 µM (inactive)
OVCAR-5
  GI50: 1.87 µM (inactive)
NCI/ADR-RES
  GI50: 2.5 µM (inactive)
SR
  GI50: 0.366 µM (active)
HCT-116
  GI50: 0.769 µM (active)
OVCAR-8
  GI50: 1.71 µM (inactive)
ACHN
  GI50: 1.74 µM (inactive)
UACC-62
  GI50: 1.56 µM (inactive)
BT-549
  GI50: 2.07 µM (inactive)
U-251
  GI50: 1.72 µM (inactive)
LOX IMVI
  GI50: 1.04 µM (active)
SW-620
  GI50: 0.622 µM (active)
UO-31
  GI50: 1.92 µM (inactive)
A549
  GI50: 2.43 µM (inactive)
Malme-3M
  GI50: 2.18 µM (inactive)
SF-295
  GI50: 14.1 µM (inactive)

## COc1ccc(Nc2nc3ccccc3nc2C(=O)O)cc1
SNB-75
  GI50: 59.7 µM (inactive)
SNB-19
  GI50: > 100 µM (inactive)
MCF7
  GI50: > 100 µM (inactive)
OVCAR-5
  GI50: > 100 µM (inactive)
NCI/ADR-RES
  GI50: 38.9 µM (inactive)
SR
  GI50: 48.6 µM (inactive)
HCT-116
  GI50: 58.6 µM (inactive)
OVCAR-8
  GI50: 71.3 µM (inactive)
ACHN
  GI50: 55 µM (inactive)
UACC-62
  GI50: > 100 µM (inactive)
BT-549
  GI50: > 100 µM (inactive)
U-251
  GI50: 64.3 µM (inactive)
LOX IMVI
  GI50: 60.1 µM (inactive)
SW-620
  GI50: 37.6 µM (inactive)
UO-31
  GI50: 40 µM (inactive)
A549
  GI50: > 100 µM (inactive)
Malme-3M
  GI50: > 100 µM (inactive)
SF-295
  GI50: 61.7 µM (inactive)

## COc1ccc(Oc2ccc3cc4c(cc3c2O)OCO4)c2cc(C)oc12
SNB-75
  GI50: 33.4 µM (inactive)
RPMI-8226
  GI50: 14.9 µM (inactive)
SNB-19
  GI50: 36.9 µM (inactive)
MCF7
  GI50: 34 µM (inactive)
OVCAR-5
  GI50: 59 µM (inactive)
NCI/ADR-RES
  GI50: 20.9 µM (inactive)
SR
  GI50: 19.3 µM (inactive)
HCT-116
  GI50: 26.4 µM (inactive)
OVCAR-8
  GI50: 37.5 µM (inactive)
ACHN
  GI50: 35.6 µM (inactive)
UACC-62
  GI50: 35.6 µM (inactive)
BT-549
  GI50: 22.5 µM (inactive)
LOX IMVI
  GI50: 19.3 µM (inactive)
SW-620
  GI50: 27.2 µM (inactive)
UO-31
  GI50: 29.1 µM (inactive)
A549
  GI50: 30.1 µM (inactive)
Malme-3M
  GI50: 24.2 µM (inactive)
SF-295
  GI50: 33.5 µM (inactive)

## CC(=O)OC1/C(=C/c2ccc([N+](=O)[O-])cc2)C[C@H]2[C@@H]3CC=C4C[C@@H](OC(C)=O)CC[C@]4(C)[C@H]3CC[C@]12C (stereo partly specified)
RPMI-8226
  GI50: > 71.3 µM (inactive)
SNB-19
  GI50: > 72.4 µM (inactive)
MCF7
  GI50: > 100 µM (inactive)
OVCAR-5
  GI50: > 100 µM (inactive)
NCI/ADR-RES
  GI50: > 43 µM (inactive)
SR
  GI50: 5.13 µM (inactive)
HCT-116
  GI50: > 100 µM (inactive)
OVCAR-8
  GI50: > 100 µM (inactive)
ACHN
  GI50: 99.8 µM (inactive)
UACC-62
  GI50: > 100 µM (inactive)
BT-549
  GI50: > 100 µM (inactive)
U-251
  GI50: 46 µM (inactive)
LOX IMVI
  GI50: > 100 µM (inactive)
SW-620
  GI50: > 100 µM (inactive)
UO-31
  GI50: > 100 µM (inactive)
A549
  GI50: > 100 µM (inactive)
Malme-3M
  GI50: > 100 µM (inactive)
SF-295
  GI50: > 73.6 µM (inactive)

## COc1cc(-c2nc3cc(F)ccc3s2)ccc1O
RPMI-8226
  GI50: 41.1 µM (inactive)
SNB-19
  GI50: 83.2 µM (inactive)
MCF7
  GI50: 4.61 µM (inactive)
OVCAR-5
  GI50: > 100 µM (inactive)
NCI/ADR-RES
  GI50: 78.9 µM (inactive)
SR
  GI50: 29.7 µM (inactive)
HCT-116
  GI50: 62.7 µM (inactive)
OVCAR-8
  GI50: > 100 µM (inactive)
ACHN
  GI50: 89.5 µM (inactive)
UACC-62
  GI50: 36.6 µM (inactive)
BT-549
  GI50: 20.6 µM (inactive)
U-251
  GI50: 54.1 µM (inactive)
LOX IMVI
  GI50: 39.1 µM (inactive)
SW-620
  GI50: > 100 µM (inactive)
UO-31
  GI50: 34.8 µM (inactive)
A549
  GI50: 67.5 µM (inactive)
Malme-3M
  GI50: 78.9 µM (inactive)
SF-295
  GI50: 43.7 µM (inactive)

## CSCC[C@H]1C(=O)N=C(N)N1C(=O)OCc1ccccc1
SNB-75
  GI50: 60.7 µM (inactive)
RPMI-8226
  GI50: 60 µM (inactive)
SNB-19
  GI50: > 100 µM (inactive)
MCF7
  GI50: 28.8 µM (inactive)
OVCAR-5
  GI50: > 100 µM (inactive)
NCI/ADR-RES
  GI50: 30.8 µM (inactive)
SR
  GI50: 17.8 µM (inactive)
HCT-116
  GI50: 17.6 µM (inactive)
OVCAR-8
  GI50: 29 µM (inactive)
ACHN
  GI50: 34.7 µM (inactive)
UACC-62
  GI50: 19.1 µM (inactive)
BT-549
  GI50: 19.8 µM (inactive)
U-251
  GI50: 34.9 µM (inactive)
LOX IMVI
  GI50: 24.5 µM (inactive)
SW-620
  GI50: 17.1 µM (inactive)
UO-31
  GI50: 30.8 µM (inactive)
Malme-3M
  GI50: 33.3 µM (inactive)
SF-295
  GI50: 61.7 µM (inactive)
